Source: patent publication US5091368A, “Biologically active compounds from blue-green algae” (Harbor Branch Oceanographic Institution, Inc., priority 1990, dated 1992)
In brackets after ≈: the same amount, converted by molar mass.

Experiments:
[1] = test system: CV-1 cells; experiment: Drug cytotoxicity in the antiviral assay; type: cell-based, African green monkey; settings: anti-HSV-1 assay; ID50 not defined in the text, TI = ID50/ED50
Source text: (§1) The antiviral assay for herpes simplex virus type 1 (HSV-1) is a plaque inhibition assay. CV-1 cells (a fibroblast-like cell culture derived from primary African green monkey cells) are infected with the Kos strain of HSV-1 . Cytopathic effects (CPE) of the virus are prevented from rapid spread by a methylcellulose medium. Distinct areas of infected cells or plaques are distinguished from a surrounding area of viable CV-1 cells by staining the culture with neutral red which is a stain taken up by living cells. The viral dose can be quantitated by counting the number of plaques. Compounds with antiviral activity can be identified by comparing the plaque number in the drug treated cells to the HSV-1 viral control.
Confluent cultures of CV-1 cells are rinsed with PBS two times and 4.0 ml trypsin solution is added to 150 cm^2 tissue sulture flask. Cells are dispersed an 10×10^6 CV-1 cells in 40 ml of growth medium are added to new 150 cm^2 flasks. The number of cells added to a cell culture flask is proportional to the area. The cell culture is confluent in 5 to 7 days for use in the antiviral assay. […]
(§2) Discs are placed in wells containing cells, virus, and overlay medium. Plates are incubated at 37° C. for 48 hours, the second overlay medium is added at […] per well, and, after 24 hours additional incubation time, the plates are read. […]

[2] = test system: murine P388 leukemia cells; experiment: Toxicity against murine P388 leukemia cells (MTT, 48 hour exposure); type: cell-based
Method: P388 cells obtained from J. Mayo, National Cancer Institute, Bethesda, Md., were maintained in Roswell Park Memorial Institute medium 1640 (RPMI-1640) supplemented with 10% horse serum. All cell lines were cultured in plastic tissue culture flasks and kept in an incubator at 37° C. in humidified air containing 5% CO2. Antibiotic-free stock cultures of P388 cells were subcultured to 10^5 cells/ml by dilution in fresh growth medium at 2-3 day intervals. The means generation time of primary cultures was 14-17 hours.
Solvent for all dilutions was methanol, which was removed from plates under vacuum. All experimental cultures were initiated in medium containing Gentamicin sulfate ([…]; Schering Corporation, Kenilworth, N.J.). […]
To quantitate the effects on cell proliferation, 75 μl of warm growth medium containing 5 mg/ml MTT was added to each well and cultures were returned to the incubator for 90 minutes. To spectophotometrically quantitate formation of reduced formazan, plates were centrifuged (900 xg, 5 minutes), culture fluids removed by aspiration, and 200 μl of acidified isopropanol (2 ml concentrated HCl/liter isopropanol) added per well. The absorbance of the resulting solutions were measured at 570 nm with a plate reader (MR700 Microplate Reader, Dynatech Laboratories, Chantilly, Va.). […]

[3] = test system: combined murine splenocyte suspensions from BALB/c and C57BL/6J mice; experiment: Mixed lymphocyte reaction (MLR), 3H-thymidine incorporation; type: cell-based; settings: percent of positive control (no drug)
Method: 1. Murine splenocyte suspensions were prepared separately from BALB/c and C57BL/6J mice. Spleens were aseptically removed and homogenized in RPMI-1640 tissue culture medium (TCM), supplemented with 10% fetal calf serum, 2% 1-glutamine, 15 mM HEPES, 1% antibiotic-antimycotic solution, and 25 μg/ml gentamicin (GIBCO). The cell concentrations were adjusted to 2.5 ×10^6 cells/ml. Aliquots of each cell population were removed to separate tubes, and the remaining two cell suspensions combined to one tube.
3. A volume of 0.2 ml of the combined splenocyte suspensions was added to triplicate test wells. Positive control wells received combined splenocyte suspensions in the absence of the test extracts/compounds. Negative control wells consisted of separate (not mixed) splenocyte suspensions cultured in the absence of the test compounds.
4. Plates were incubated in 5% CO2 at 37° C. for 86 hours.
5. A volume of 0.05 ml of ^3 H-thymidine (20 μCk/ml) was added to each well, and the plates were incubated in 5% CO2 at 37° C. for an additional 5 hours.
6. The contents of each well of the microtiter plates were harvested onto glass fiber filter strips, and the resulting filter discs placed in scintillation vials to which 2.0 ml of scintillation fluid was added.
7. The amount of incorporated ^3 H-thymidine was determined by counting the vials in a liquid scintillation counter.
8. Triplicate counts were averaged, and the data reported as a percentage of the positive control.

[4] = test system: herpes simplex virus type 1 (HSV-1), Kos strain; experiment: HSV-1 plaque inhibition assay in CV-1 cells; type: cell-based; settings: anti-HSV-1 activity
Source text: as §1
Twenty-four well plates (16 mm diameter per well) are seeded with 2×10^5 cells per well in 0.5 ml growth medium and incubated at 37°) C. with 5% CO2. The plates are used in 24 to 72 hours. Each well is infected with at least 25 but no more than 80 plaque forming units (PFU) of virus. Plates are incubated for 1.0 hours at 37° C. with 0.2 ml virus. […]
as §2

[5] = test system: murine splenocytes from BALB/c mice (lymphoid cells); experiment: Lymphocyte viability assay (LCV), MTT; type: cell-based; settings: percent of positive control (no drug)
Method: 1. Extra and compounds were similarly tested in parallel with the MLR to determine their toxic effects on lymphoid cells using the lymphocyte viability assay (LCV).
3. Murine splenocyte suspensions were prepared from BALB/c mice. Spleens were aseptically removed and homogenized in RPMI-1640 tissue culture medium (TCM), supplemented with 10% fetal calf serum, 2% 1-glutamine, 15 mM HEPES, 1% antibiotic-antimycotic solution, and 25 μg/ml gentamicin (GIBCO). The cell concentrations were adjusted to 2.5 ×10^6 cells/ml.
4. A volume of 0.2 ml of the splenocyte suspension was added to replicate test wells. Positive control wells received splenocyte suspensions in the absence of the test extracts/compounds.
5. Plates were incubated at 37° C. for 86 hours. At the end of the incubation period, a volume of 75 μl of a 2.0 mg/ml solution of MTT was added to each well, and the plates were returned to the incubator for an additional 5 hours.
6. The supernatants from each microwell were then removed, and a volume of 200 μl of isopropanol was added and the contents mixed.
7. Values were obtained by comparing the optical densities (determined at 570 and 650 nm) of wells containing the test compounds with those of wells containing cells and medium only (positive control). The results are expressed as a percentage of the positive control.
8. Replicate counts were averaged, and the data reported as a percentage of the positive control. An LCV value of less than 60% of the positive control is an indication of cytotoxicity of the test extracts/compounds for lymphoid cells.

**Q.** What does the source list for `CCCC[C@@H](C)C[C@@H](C)C(=O)N(C)[C@@H](CC(C)C)C(=O)N[C@H](C(=O)N(C)[C@H](C(=O)N1C[C@@H](O)C[C@H]1C(=O)N1C(=O)C=C[C@@H]1C)C(C)C)[C@H](C)OC(C)=O` [Microcolin A, microcolin A]?
**A.** ID50 [1]: 480 nanograms/ml; IC50 [2]: 0.0009 µg/mL (≈ 1.2 nM); % MLR Control ([3]; 2.5 ng/ml): < 1%; % MLR Control ([3]; 5.0 ng/ml): < 1%; % MLR Control ([3]; 10.0 ng/ml): < 1%; % MLR Control ([3]; 20.0 ng/ml): < 1%; % MLR Control ([3]; 40.0 ng/ml): < 1%; % MLR Control ([3]; 80.0 ng/ml): < 1%; % MLR Control ([3]; 160.0 ng/ml): < 1%; % MLR Control ([3]; 312.5 ng/ml): < 1%; % MLR Control ([3]; 625.0 ng/ml): < 1%; % MLR Control ([3]; 1250.0 ng/ml): < 1%; % MLR Control ([3]; 2500.0 ng/ml): < 1%; % MLR Control ([3]; 5000.0 ng/ml): < 1%; ED50 [4]: 2.5 nanograms/ml; % LCV Control ([5]; 2.5 ng/ml): 78%; % LCV Control ([5]; 5.0 ng/ml): 71%; % LCV Control ([5]; 10.0 ng/ml): 80%; % LCV Control ([5]; 20.0 ng/ml): 82%; % LCV Control ([5]; 40.0 ng/ml): 60%; % LCV Control ([5]; 80.0 ng/ml): 59%; % LCV Control ([5]; 160.0 ng/ml): 59%; % LCV Control ([5]; 312.5 ng/ml): 48%; % LCV Control ([5]; 625.0 ng/ml): 52%; % LCV Control ([5]; 1250.0 ng/ml): 31%; % LCV Control ([5]; 2500.0 ng/ml): 18%; % LCV Control ([5]; 5000.0 ng/ml): 3%

**Q.** microcolin B was tested. Which ID50 [1] did it give?
**A.** 1185 nanograms/ml

**Q.** And the IC50 [2]?
**A.** 0.096 µg/mL

**Q.** What about the “% MLR Control” value ([3]; 2.5 ng/ml) of the same compound?
**A.** 93%

**Q.** What about the “% MLR Control” value ([3]; 5.0 ng/ml) of the same compound?
**A.** 87%

**Q.** And the “% MLR Control” value ([3]; 10.0 ng/ml)?
**A.** 80%

**Q.** And the “% MLR Control” value ([3]; 20.0 ng/ml)?
**A.** 39%

**Q.** What about the “% MLR Control” value ([3]; 40.0 ng/ml) of the same compound?
**A.** 1%

**Q.** And the “% MLR Control” value ([3]; 80.0 ng/ml)?
**A.** < 1%

**Q.** What about the “% MLR Control” value ([3]; 160.0 ng/ml) of the same compound?
**A.** < 1%

**Q.** What about the “% MLR Control” value ([3]; 312.5 ng/ml) of the same compound?
**A.** < 1%

**Q.** And the “% MLR Control” value ([3]; 625.0 ng/ml)?
**A.** < 1%

**Q.** What about the “% MLR Control” value ([3]; 1250.0 ng/ml) of the same compound?
**A.** < 1%

**Q.** And the “% MLR Control” value ([3]; 2500.0 ng/ml)?
**A.** < 1%

**Q.** And the “% MLR Control” value ([3]; 5000.0 ng/ml)?
**A.** < 1%

**Q.** And the ED50 [4]?
**A.** 146.0 nanograms/ml

**Q.** And the “% LCV Control” value ([5]; 2.5 ng/ml)?
**A.** 78%

**Q.** And the “% LCV Control” value ([5]; 5.0 ng/ml)?
**A.** 121%

**Q.** And the “% LCV Control” value ([5]; 10.0 ng/ml)?
**A.** 107%

**Q.** What about the “% LCV Control” value ([5]; 20.0 ng/ml) of the same compound?
**A.** 105%

**Q.** And the “% LCV Control” value ([5]; 40.0 ng/ml)?
**A.** 97%

**Q.** And the “% LCV Control” value ([5]; 80.0 ng/ml)?
**A.** 114%

**Q.** And the “% LCV Control” value ([5]; 160.0 ng/ml)?
**A.** 99%

**Q.** What about the “% LCV Control” value ([5]; 312.5 ng/ml) of the same compound?
**A.** 110%

**Q.** What about the “% LCV Control” value ([5]; 625.0 ng/ml) of the same compound?
**A.** 88%

**Q.** What about the “% LCV Control” value ([5]; 1250.0 ng/ml) of the same compound?
**A.** 75%

**Q.** And the “% LCV Control” value ([5]; 2500.0 ng/ml)?
**A.** 51%

**Q.** And the “% LCV Control” value ([5]; 5000.0 ng/ml)?
**A.** 29%
